The values below come from patent publication US7589212B2, “Human protein tyrosine phosphatase inhibitors and methods of use” (Procter & Gamble Company, priority 2006, dated 2009).

The target in one assay is HPTPβ (Homo sapiens, UniProt P23467). The experiment in a line: HPTPβ inhibition (IC50). It is filed as biochemical.
Another assay addresses T1, PTP1B (Homo sapiens, UniProt P18031).
T1 sequence (P18031 1-435): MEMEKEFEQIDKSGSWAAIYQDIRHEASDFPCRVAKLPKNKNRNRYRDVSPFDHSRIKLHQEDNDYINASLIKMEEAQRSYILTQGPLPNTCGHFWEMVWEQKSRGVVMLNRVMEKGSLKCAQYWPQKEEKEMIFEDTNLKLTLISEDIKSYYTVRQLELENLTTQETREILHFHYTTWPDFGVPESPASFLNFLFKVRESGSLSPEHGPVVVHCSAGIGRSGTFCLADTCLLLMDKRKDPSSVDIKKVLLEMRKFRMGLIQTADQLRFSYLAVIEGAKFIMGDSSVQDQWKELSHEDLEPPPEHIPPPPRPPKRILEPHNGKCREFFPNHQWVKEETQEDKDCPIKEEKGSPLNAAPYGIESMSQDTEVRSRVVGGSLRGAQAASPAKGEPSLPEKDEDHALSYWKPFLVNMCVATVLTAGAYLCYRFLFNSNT
Put plainly: PTP1B inhibition (IC50). It is filed as biochemical.

Broadly, the IC50 is the concentration needed to halve the response being measured.

HPTPβ, sequence (P23467 23-1997): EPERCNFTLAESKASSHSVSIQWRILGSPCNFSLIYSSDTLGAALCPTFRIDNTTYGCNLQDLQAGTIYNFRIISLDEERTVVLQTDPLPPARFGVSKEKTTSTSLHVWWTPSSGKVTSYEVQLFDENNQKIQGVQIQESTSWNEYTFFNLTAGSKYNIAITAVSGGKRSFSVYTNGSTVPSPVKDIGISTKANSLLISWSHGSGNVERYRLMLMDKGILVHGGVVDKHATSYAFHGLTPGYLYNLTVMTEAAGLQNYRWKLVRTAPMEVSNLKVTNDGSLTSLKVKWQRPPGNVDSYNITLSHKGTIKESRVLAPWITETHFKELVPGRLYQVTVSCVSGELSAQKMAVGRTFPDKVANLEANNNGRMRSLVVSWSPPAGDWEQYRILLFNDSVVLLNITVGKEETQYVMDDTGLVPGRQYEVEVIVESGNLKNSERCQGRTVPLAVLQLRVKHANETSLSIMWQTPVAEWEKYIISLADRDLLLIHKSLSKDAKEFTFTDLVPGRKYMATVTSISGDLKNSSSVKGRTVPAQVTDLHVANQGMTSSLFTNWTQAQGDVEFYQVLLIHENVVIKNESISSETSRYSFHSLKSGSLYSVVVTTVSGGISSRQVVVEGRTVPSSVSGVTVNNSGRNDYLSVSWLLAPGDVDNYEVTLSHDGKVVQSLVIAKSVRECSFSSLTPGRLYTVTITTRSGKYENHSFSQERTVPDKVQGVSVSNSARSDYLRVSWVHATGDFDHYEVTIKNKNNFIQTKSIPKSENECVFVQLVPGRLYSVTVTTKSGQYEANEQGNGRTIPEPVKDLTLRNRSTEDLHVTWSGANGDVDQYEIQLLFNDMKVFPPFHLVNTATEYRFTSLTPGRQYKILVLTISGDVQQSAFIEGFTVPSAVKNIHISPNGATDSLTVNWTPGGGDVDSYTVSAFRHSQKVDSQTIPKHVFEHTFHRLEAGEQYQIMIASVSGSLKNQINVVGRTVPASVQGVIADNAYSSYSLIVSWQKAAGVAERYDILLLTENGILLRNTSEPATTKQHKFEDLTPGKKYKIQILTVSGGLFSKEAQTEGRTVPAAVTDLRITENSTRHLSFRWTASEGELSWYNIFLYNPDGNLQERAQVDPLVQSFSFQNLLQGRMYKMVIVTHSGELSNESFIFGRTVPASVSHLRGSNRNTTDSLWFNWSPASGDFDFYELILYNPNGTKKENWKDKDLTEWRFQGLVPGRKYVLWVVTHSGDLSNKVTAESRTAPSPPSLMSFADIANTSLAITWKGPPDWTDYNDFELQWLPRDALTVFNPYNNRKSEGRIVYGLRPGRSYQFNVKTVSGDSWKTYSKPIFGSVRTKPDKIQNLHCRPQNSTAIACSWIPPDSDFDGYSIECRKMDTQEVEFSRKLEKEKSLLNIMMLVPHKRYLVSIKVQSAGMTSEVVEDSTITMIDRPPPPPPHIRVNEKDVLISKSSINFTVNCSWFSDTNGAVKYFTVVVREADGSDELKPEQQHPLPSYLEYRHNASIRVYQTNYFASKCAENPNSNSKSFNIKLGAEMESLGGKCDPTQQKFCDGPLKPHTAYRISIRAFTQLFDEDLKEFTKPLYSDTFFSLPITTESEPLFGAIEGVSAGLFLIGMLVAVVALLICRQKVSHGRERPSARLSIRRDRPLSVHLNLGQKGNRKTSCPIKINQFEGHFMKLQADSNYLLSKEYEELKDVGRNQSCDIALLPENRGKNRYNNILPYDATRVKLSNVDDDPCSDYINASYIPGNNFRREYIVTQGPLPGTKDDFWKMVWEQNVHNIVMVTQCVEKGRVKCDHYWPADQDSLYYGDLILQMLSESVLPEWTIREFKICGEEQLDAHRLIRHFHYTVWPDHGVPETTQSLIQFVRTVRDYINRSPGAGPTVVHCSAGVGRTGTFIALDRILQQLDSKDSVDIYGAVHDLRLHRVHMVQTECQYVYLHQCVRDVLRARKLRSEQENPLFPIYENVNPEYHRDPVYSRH

For the molecule `O=S(=O)(O)Nc1ccc(C[C@H](Nc2nnc(Cc3ccccc3)s2)c2csc(-c3cccs3)n2)cc1` [4-((S)-2-(5-Benzyl-1,3,4-thiadiazol-2-ylamino)-2-(2-(thiophen-2-yl)thiazol-4-yl)ethyl)phenylsulfamic acid], the IC50 at HPTPβ turned out to be 0.6 nM; against PTP1B, 3860 nM.

Turning to `O=S(=O)(O)Nc1ccc(C[C@H](Nc2nnc(-c3ccccc3)s2)c2csc(-c3ccccc3)n2)cc1` [(S)-4-(2-(5-Phenyl-1,3,4-thiadiazol-2-ylamino)-2-(2-phenylthiazol-4-yl)ethyl)-phenylsulfamic acid], the IC50 was 46 nM against HPTPβ and 3700 nM at PTP1B.

As to `Cc1nc(Cc2nnc(N[C@@H](Cc3ccc(NS(=O)(=O)O)cc3)c3csc(-c4cccs4)n3)s2)cs1` [4-((S)-2-(5-((2-Methylthiazol-4-yl)methyl)-1,3,4-thiadiazol-2-ylamino)-2-(2-(thiophen-2-yl)thiazol-4-yl)ethyl)phenylsulfamic acid], the results for the half-inhibitory concentration (IC50) against HPTPβ and against PTP1B were 0.009 nM and 580 nM, respectively.

For `Cc1nnc(N[C@@H](Cc2ccc(NS(=O)(=O)O)cc2)c2csc(-c3ccccc3)n2)s1` [(S)-4-(2-(5-methyl-1,3,4-thiadiazol-2-ylamino)-2-(2-phenylthiazol-4-yl)ethyl)phenylsulfamic acid], the IC50 was 3 nM at HPTPβ and 1400 nM against PTP1B.

Regarding `CCCc1nnc(N[C@@H](Cc2ccc(NS(=O)(=O)O)cc2)c2csc(-c3cccs3)n2)s1` [4-((S)-2-(5-Propyl-1,3,4-thiadiazol-2-ylamino)-2-(2-(thiophen-2-yl)thiazol-4-yl)ethyl)phenylsulfamic acid], the IC50 was determined as 0.2 nM against HPTPβ and 4710 nM against PTP1B.

Consider `COC(=O)Cc1nnc(N[C@@H](Cc2ccc(NS(=O)(=O)O)cc2)c2csc(-c3cccs3)n2)s1` [4-((S)-2-(5-((Methoxycarbonyl)methyl)-1,3,4-thiadiazol-2-ylamino)-2-(2-(thiophen-2-yl)thiazol-4-yl)ethyl)phenylsulfamic acid], for which the IC50 at HPTPβ worked out at 2 nM; against PTP1B it was 1550 nM.
